Results: patent publication US20250332178A1, “METHODS OF TREATING MYCOBACTERIAL INFECTIONS USING TETRACYCLINE COMPOUNDS” (priority 2018, published 2025)

Tests used:
[1] = system: slow-growing NTM isolates; test: MIC (CLSI broth dilution), all slow-growing NTM isolates; assay type: cell-based, nontuberculous mycobacteria; conditions: all slow-growing NTM isolates
M. smegmatis group = test: MIC (CLSI broth dilution), RGM isolates; assay type: cell-based
M. mucogenium group = test: MIC (CLSI broth dilution), RGM isolates; assay type: cell-based
M. abscessus complex = test: MIC (CLSI broth dilution), RGM isolates; assay type: cell-based
Mycobacterium fortuitum = test: MIC by broth microdilution in CAMHB, clinical isolates; assay type: cell-based
Mycobacterium abscessus = test: as above; assay type: cell-based
Mycobacterium chelonae = test: as above; assay type: cell-based
[2] = system: rapid-growing mycobacteria (RGM) isolates; test: MIC (CLSI broth dilution), all RGM isolates; assay type: cell-based, nontuberculous mycobacteria; conditions: all 50 RGM isolates
M. fortuitum group = test: MIC (CLSI broth dilution), RGM isolates; assay type: cell-based
M. chelonae = test: MIC (CLSI broth dilution), RGM isolates; assay type: cell-based
M. immunogenum group = test: MIC (CLSI broth dilution), RGM isolates; assay type: cell-based; conditions: M. immunogenum
[3] = 24 clinical isolates (tigecycline: subset N=14)

NCC[C@H](O)C(=O)N[C@@H]1C[C@H](N)[C@@H](O[C@H]2O[C@H](CN)[C@@H](O)[C@H](O)[C@H]2O)[C@H](O)[C@H]1O[C@H]1O[C@H](CO)[C@@H](O)[C@H](N)[C@H]1O [Amikacin, amikacin]
32 µg/mL: MIC90 [1] | MIC (M. abscessus complex; isolate 5, M. abscessus complex, erm gene type massiliense/subsp. abs hybrid)
4 µg/mL: MIC (M. abscessus complex; isolate 2, M. abscessus complex, erm gene type MAB30) | MIC (M. abscessus complex; isolate 13, M. abscessus complex, erm gene type Type 6 abscessus) | MIC (M. abscessus complex; isolate 17, M. abscessus complex, erm gene type Type 8 abscessus) | MIC90 (Mycobacterium fortuitum; 20 clinical isolates) | MIC (Mycobacterium fortuitum; isolate No. 20, 2491) | MIC (Mycobacterium abscessus; isolate No. 5, BB6) | MIC (Mycobacterium abscessus; isolate No. 12, 6005) | MIC (Mycobacterium abscessus; isolate No. 17, 5812) | MIC (Mycobacterium abscessus; isolate No. 20, 6142) | MIC50 (Mycobacterium chelonae; 22 clinical isolates) | MIC (Mycobacterium chelonae; isolate No. 1, MC 7323) | MIC (Mycobacterium chelonae; isolate No. 5, MC 7584) | MIC (Mycobacterium chelonae; isolate No. 6, MC 7192) | MIC (Mycobacterium chelonae; isolate No. 8, MC 7533) | MIC (Mycobacterium chelonae; isolate No. 9, MC 7579) | MIC (Mycobacterium chelonae; isolate No. 11, MC 7414) | MIC (Mycobacterium chelonae; isolate No. 16, MC 14-S-03) | MIC (Mycobacterium chelonae; isolate No. 17, MC 14-S-04) | MIC (Mycobacterium chelonae; isolate No. 20, MC 14-S-07) | MIC (Mycobacterium chelonae; isolate No. 22, MC 7302) | MIC50 [2] | MIC (M. immunogenum group; isolate 36, M. immunogenum group)
8 µg/mL: MIC (M. abscessus complex; isolate 1, M. abscessus complex, erm gene type MAB30) | MIC (M. abscessus complex; isolate 4, M. abscessus complex, erm gene type massiliense) | MIC (M. abscessus complex; isolate 6, M. abscessus complex, erm gene type Type 1 abscessus) | MIC (M. abscessus complex; isolate 7, M. abscessus complex, erm gene type Type 1 abscessus) | MIC (M. abscessus complex; isolate 8, M. abscessus complex, erm gene type Type 1 abscessus) | MIC (M. abscessus complex; isolate 12, M. abscessus complex, erm gene type Type 6 abscessus) | MIC (M. abscessus complex; isolate 15, M. abscessus complex, erm gene type Type 7 abscessus) | MIC (Mycobacterium fortuitum; isolate No. 1, 3349) | MIC90 (Mycobacterium abscessus; [3]) | MIC (Mycobacterium abscessus; isolate No. 1, BB2) | MIC (Mycobacterium abscessus; isolate No. 2, BB4) | MIC (Mycobacterium abscessus; isolate No. 16, BB5) | MIC (Mycobacterium abscessus; isolate No. 22, LT 949) | MIC (Mycobacterium abscessus; isolate No. 23, 6025) | MIC (Mycobacterium abscessus; isolate No. 24, 6153) | MIC90 (Mycobacterium chelonae; 22 clinical isolates) | MIC (Mycobacterium chelonae; isolate No. 2, MC 7534) | MIC (Mycobacterium chelonae; isolate No. 4, MC 7514) | MIC (Mycobacterium chelonae; isolate No. 10, MC 7614) | MIC (Mycobacterium chelonae; isolate No. 13, MC 7281) | MIC (Mycobacterium chelonae; isolate No. 14, MC 7328) | MIC (Mycobacterium chelonae; isolate No. 15, MC 7294) | MIC (Mycobacterium chelonae; isolate No. 18, MC 14-S-05) | MIC (Mycobacterium chelonae; isolate No. 19, MC 14-S-06) | MIC (M. chelonae; isolate 18, M. chelonae) | MIC (M. immunogenum group; isolate 37, M. immunogenum group) | MIC (M. immunogenum group; isolate 38, M. immunogenum group)
16 µg/mL: MIC50 [1] | MIC (M. abscessus complex; isolate 3, M. abscessus complex, erm gene type MAB30) | MIC (M. abscessus complex; isolate 10, M. abscessus complex, erm gene type Type 1 abscessus) | MIC (M. abscessus complex; isolate 11, M. abscessus complex, erm gene type Type 6 abscessus) | MIC (M. abscessus complex; isolate 14, M. abscessus complex, erm gene type Type 6 abscessus) | MIC (M. abscessus complex; isolate 16, M. abscessus complex, erm gene type Type 7 abscessus) | MIC (Mycobacterium fortuitum; isolate No. 14, 7484) | MIC (Mycobacterium chelonae; isolate No. 3, MC 7368) | MIC90 [2] | MIC (M. chelonae; isolate 19, M. chelonae) | MIC (M. chelonae; isolate 20, M. chelonae) | MIC (M. chelonae; isolate 21, M. chelonae) | MIC (M. chelonae; isolate 22, M. chelonae) | MIC (M. immunogenum group; isolate 35, M. immunogenum group)
1 µg/mL: MIC (Mycobacterium fortuitum; isolate No. 4, 32) | MIC (Mycobacterium fortuitum; isolate No. 6, 3489) | MIC (Mycobacterium fortuitum; isolate No. 7, 3491) | MIC (Mycobacterium fortuitum; isolate No. 10, 36) | MIC (Mycobacterium fortuitum; isolate No. 13, 3579) | MIC (Mycobacterium abscessus; isolate No. 9, 5785) | MIC (Mycobacterium abscessus; isolate No. 19, 5960)
0.125 µg/mL: MIC (Mycobacterium fortuitum; isolate No. 18, 3316)
0.5 µg/mL: MIC50 (Mycobacterium fortuitum; 20 clinical isolates) | MIC (Mycobacterium fortuitum; isolate No. 8, 54) | MIC (Mycobacterium fortuitum; isolate No. 9, 38) | MIC (Mycobacterium fortuitum; isolate No. 11, 3480) | MIC (Mycobacterium fortuitum; isolate No. 12, 3126) | MIC (Mycobacterium fortuitum; isolate No. 15, 3488) | MIC (Mycobacterium fortuitum; isolate No. 16, 3276) | MIC (Mycobacterium fortuitum; isolate No. 17, 3442) | MIC (Mycobacterium fortuitum; isolate No. 19, 3490) | MIC (Mycobacterium abscessus; isolate No. 7, BB7) | MIC (Mycobacterium abscessus; isolate No. 8, 6031) | MIC (Mycobacterium abscessus; isolate No. 14, 5931)
>64 µg/mL: MIC (M. abscessus complex; isolate 9, M. abscessus complex, erm gene type Type 1 abscessus)
0.25 µg/mL: MIC (Mycobacterium fortuitum; isolate No. 2, 3499)
2 µg/mL: MIC (Mycobacterium fortuitum; isolate No. 3, 2797) | MIC (Mycobacterium fortuitum; isolate No. 5, 33) | MIC50 (Mycobacterium abscessus; [3]) | MIC (Mycobacterium abscessus; isolate No. 3, 5922) | MIC (Mycobacterium abscessus; isolate No. 4, BB3) | MIC (Mycobacterium abscessus; isolate No. 6, 5908) | MIC (Mycobacterium abscessus; isolate No. 10, BB8) | MIC (Mycobacterium abscessus; isolate No. 11, 6111) | MIC (Mycobacterium abscessus; isolate No. 13, 5605) | MIC (Mycobacterium abscessus; isolate No. 15, BB1) | MIC (Mycobacterium abscessus; isolate No. 18, 5901) | MIC (Mycobacterium abscessus; isolate No. 21, 5922) | MIC (Mycobacterium chelonae; isolate No. 7, MC 7466) | MIC (Mycobacterium chelonae; isolate No. 12, MC 7313) | MIC (Mycobacterium chelonae; isolate No. 21, MC 35757)
≤2 µg/mL: MIC (M. smegmatis group; isolate 49, M. smegmatis group, M. goodii) | MIC (M. smegmatis group; isolate 50, M. smegmatis group, M. wolinskyi) | MIC (M. mucogenium group; isolate 39, M. mucogenicum group, M. mucogenicum) | MIC (M. mucogenium group; isolate 40, M. mucogenicum group, M. mucogenicum) | MIC (M. mucogenium group; isolate 41, M. mucogenicum group, M. mucogenicum) | MIC (M. mucogenium group; isolate 42, M. mucogenicum group, M. mucogenicum) | MIC (M. mucogenium group; isolate 43, M. mucogenicum group, M. phocaicum) | MIC (M. mucogenium group; isolate 44, M. mucogenicum group, M. phocaicum) | MIC (M. mucogenium group; isolate 45, M. mucogenicum group, M. phocaicum) | MIC (M. mucogenium group; isolate 46, M. mucogenicum group, M. phocaicum) | MIC (M. mucogenium group; isolate 47, M. mucogenicum group, M. phocaicum) | MIC (M. mucogenium group; isolate 48, M. mucogenicum group, M. phocaicum) | MIC (M. fortuitum group; isolate 23, M. fortuitum group, M. fortuitum) | MIC (M. fortuitum group; isolate 24, M. fortuitum group, M. fortuitum) | MIC (M. fortuitum group; isolate 25, M. fortuitum group, M. fortuitum) | MIC (M. fortuitum group; isolate 26, M. fortuitum group, M. porcinum) | MIC (M. fortuitum group; isolate 27, M. fortuitum group, M. porcinum) | MIC (M. fortuitum group; isolate 28, M. fortuitum group, M. porcinum/M. boenickei) | MIC (M. fortuitum group; isolate 29, M. fortuitum group, M. porcinum/M. boenickei) | MIC (M. fortuitum group; isolate 30, M. fortuitum group, M. porcinum/M. boenickei) | MIC (M. fortuitum group; isolate 31, M. fortuitum group, M. senegalense) | MIC (M. fortuitum group; isolate 32, M. fortuitum group, M. senegalense) | MIC (M. fortuitum group; isolate 33, M. fortuitum group, M. senegalense) | MIC (M. fortuitum group; isolate 34, M. fortuitum group, M. senegalense)
